Assay results from patent US12612372B2, “Oxopyridazinyl-phenyl-carbonohydrazonoyl dicyanide compound and use thereof” (KOREA INSTITUTE OF SCIENCE AND TECHNOLOGY, priority 2020, dated 2026).

Tests used:
tau protein = target: T1, tau protein (Homo sapiens, UniProt P10636); assay: Tau-BiFC cell model, Forskolin-induced tau protein aggregation; assay type: cell-based; settings: for Tau BiFC in cells Response (%, @10 μM): 10 μM compound, BiFC fluorescence relative to Forskolin-only group (100% tau protein-aggregated state), 48 hours
T1 construct: fused on or other part: Split Venus fragments VN173 and VC155, each fused to one copy of tau as BiFC reporter halves
Procedure: (§1) In order to select novel tau protein aggregation—inhibiting substances, tau-BiFC cell model, in which formation of tau oligomers in living cells is easily observed, was used. Tau-BiFC cells were aliquoted into a 384-well plate. […] After 48 hours, nuclei in the cells were stained using Hoechst (at a treatment concentration of 2 μg/mL), and BiFC fluorescence intensity was automatically measured using Operetta (PerkinElmer) to count stained nuclei in each well out of the entire well plate. […] Furthermore, the degree of cytotoxicity induced by the newly synthesized compound was also measured based on the 100% cell viability of the group treated only with Forskolin as a reference, and the cytotoxicity value of each compound was calculated using the equation “(number of stained nuclei in group treated with compound/number of stained nuclei in group treated with Forskolin)×100”.
(§2) After 48 hours, tau protein aggregation reaction and degrees of cytotoxicity were analyzed by observing images of the cells. IC50 and toxicity of the compounds were analyzed by nonlinear regression analysis of Prism software (Graph Pad).

Tau-BiFC cells = assay: Cell viability (stained nuclei count) in tau-BiFC cells; settings: 10 μM compound; stained nuclei relative to Forskolin-only group (100%), 48 hours
Procedure: as §1, §2

CYP1A2 = target: T2, CYP1A2 (Homo sapiens, UniProt P05177); assay: CYP coenzyme activity in human liver microsomes, CYP1A2; assay type: in vitro ADME; settings: 10 μM compound, human liver microsomes 0.25 mg/mL, substrate phenacetin, 15 minutes
T2 construct: human liver microsomes (0.25 mg/mL); from tissue; host or cells: human liver microsomes
T2 sequence (P05177 1-516): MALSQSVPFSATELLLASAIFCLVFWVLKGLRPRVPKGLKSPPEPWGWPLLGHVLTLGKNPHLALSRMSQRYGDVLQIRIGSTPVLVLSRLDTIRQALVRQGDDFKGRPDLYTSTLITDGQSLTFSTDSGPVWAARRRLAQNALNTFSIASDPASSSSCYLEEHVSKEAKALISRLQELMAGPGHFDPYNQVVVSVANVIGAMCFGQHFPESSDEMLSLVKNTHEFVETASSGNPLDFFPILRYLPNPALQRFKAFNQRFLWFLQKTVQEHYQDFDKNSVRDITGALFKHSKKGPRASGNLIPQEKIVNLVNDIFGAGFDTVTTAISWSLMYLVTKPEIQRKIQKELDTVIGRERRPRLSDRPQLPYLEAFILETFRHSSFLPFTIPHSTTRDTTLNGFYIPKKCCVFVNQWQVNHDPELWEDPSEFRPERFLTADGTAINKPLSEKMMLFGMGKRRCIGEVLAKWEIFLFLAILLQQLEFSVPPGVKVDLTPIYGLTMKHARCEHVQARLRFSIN
Procedure: (§3) Specifically, human liver microsomes (0.25 mg/mL), a 0.1 M phosphate buffer solution (pH 7.4), a substrate drug cocktail of five types of drug metabolism enzymes (50 μM phenacetin, 10 μM diclofenac, 100 μM S-mephenytoin, 5 μM dextromethorphan, and 2.5 μM midazolam), and the compound at a concentration of 0 μM or 10 μM were mixed and pre-cultured at 37° C. for 5 minutes, and then further cultured at 37° C. for 15 minutes together with an NADPH generation system solution added thereto. Thereafter, the reaction was terminated by adding an acetonitrile solution containing an internal standard material (terfenadine) and centrifuged for 5 minutes (14,000 rpm, 4° C.), and then a supernatant was injected into an LC-MS/MS system for simultaneous analysis of metabolites of the substrate drugs to thereby evaluate the inhibitory effects on drug metabolism.
(§4) Metabolites of each CYP coenzyme indicator drug generated through the reaction were analyzed using the Shimadzu Nexera XR system and TSQ Vantage (Thermo). In an HPLC column, Kinetex C18 (2.1 mm×100 mm, 2.6 μm particle size; Phenomenex, USA) was used, and mobile phases were (A) distilled water containing 0.1% formic acid and (B) acetonitrile containing 0.1% formic acid, and a gradient program shown in Table 3 was applied thereto.
(§5) The generated metabolites were quantified using a multiple reaction monitoring (MRM) quantification mode, and Xcalibur (version 1.6.1) was used for data analysis. In order to express the inhibitory effects of the novel compounds prepared according to the examples of the present invention on CYP coenzyme activity, CYP coenzyme activities (%) with respect to the control group not treated with any compound are shown in Table 4 below.

CYP2C9 = target: T3, CYP2C9 (Homo sapiens, UniProt P11712); assay: CYP coenzyme activity in human liver microsomes, CYP2C9; assay type: in vitro ADME; settings: 10 μM compound, human liver microsomes 0.25 mg/mL, substrate diclofenac, 15 minutes
T3 construct: human liver microsomes (0.25 mg/mL); from tissue; host or cells: human liver microsomes
Procedure: as §3, §4, §5

CYP2C19 = target: T4, CYP2C19 (Homo sapiens, UniProt P33261); assay: CYP coenzyme activity in human liver microsomes, CYP2C19; assay type: in vitro ADME; settings: 10 μM compound, human liver microsomes 0.25 mg/mL, substrate S-mephenytoin, 15 minutes
T4 construct: human liver microsomes (0.25 mg/mL); from tissue; host or cells: human liver microsomes
Procedure: as §3, §4, §5

CYP2D6 = target: T5, CYP2D6 (Homo sapiens, UniProt P10635); assay: CYP coenzyme activity in human liver microsomes, CYP2D6; assay type: in vitro ADME; settings: 10 μM compound, human liver microsomes 0.25 mg/mL, substrate dextromethorphan, 15 minutes
T5 construct: human liver microsomes (0.25 mg/mL); from tissue; host or cells: human liver microsomes
Procedure: as §3, §4, §5

CYP3A4 = target: T6, CYP3A4 (Homo sapiens, UniProt P08684); assay: CYP coenzyme activity in human liver microsomes, CYP3A4; assay type: in vitro ADME; settings: 10 μM compound, human liver microsomes 0.25 mg/mL, substrate midazolam, 15 minutes
T6 construct: human liver microsomes (0.25 mg/mL); from tissue; host or cells: human liver microsomes
Procedure: as §3, §4, §5

[1] = Liver microsome stability, human; assay type: in vitro ADME; settings: human liver microsomes 0.25 mg/mL, 1 μM compound, 37° C., 30 minutes, NADPH
Procedure: (§6) The stability of liver microsomes due to the compounds prepared according to Examples 1 to 14 was confirmed. Specifically, four types of liver microsomes (human, dog, rat, and mouse, each 0.25 mg/mL), a 0.1 M phosphate buffer solution (pH 7.4), and each of the compounds at a concentration of 1 μM were mixed and pre-cultured at 37° C. for 5 minutes and further cultured at 37° C. for 30 minutes together with an NADPH generation system solution added thereto. Thereafter, the reaction was terminated by adding an acetonitrile solution containing an internal standard material (chlorpropamide) and centrifuged for 5 minutes (14,000 rpm, 4° C.), and then a supernatant was injected into an LC-MS/MS system for analysis of substrate drugs to thereby evaluate metabolic stability due to 8 types of compounds.
(§7) The amount of the substrate remaining after the reaction was analyzed using the Shimadzu Nexera XR system and TSQ Vantage (Thermo). In an HPLC column, Kinetex XB-C18 (2.1 mm×100 mm, particle size of 2.6 μm; Phenomenex, USA) was used, and mobile phases were (A) distilled water containing 0.1% formic acid and (B) acetonitrile containing 0.1% formic acid. Analyst software (version 1.6.3) and Xcalibur (version 1.6.1) were used for data analysis.

[2] = Liver microsome stability, dog; assay type: in vitro ADME; settings: dog liver microsomes 0.25 mg/mL, 1 μM compound, 37° C., 30 minutes, NADPH
Procedure: as §6, §7

[3] = Liver microsome stability, rat; assay type: in vitro ADME; settings: rat liver microsomes 0.25 mg/mL, 1 μM compound, 37° C., 30 minutes, NADPH
Procedure: as §6, §7

[4] = Liver microsome stability, mouse; assay type: in vitro ADME; settings: mouse liver microsomes 0.25 mg/mL, 1 μM compound, 37° C., 30 minutes, NADPH
Procedure: as §6, §7

T3 sequence (P11712 whole entry): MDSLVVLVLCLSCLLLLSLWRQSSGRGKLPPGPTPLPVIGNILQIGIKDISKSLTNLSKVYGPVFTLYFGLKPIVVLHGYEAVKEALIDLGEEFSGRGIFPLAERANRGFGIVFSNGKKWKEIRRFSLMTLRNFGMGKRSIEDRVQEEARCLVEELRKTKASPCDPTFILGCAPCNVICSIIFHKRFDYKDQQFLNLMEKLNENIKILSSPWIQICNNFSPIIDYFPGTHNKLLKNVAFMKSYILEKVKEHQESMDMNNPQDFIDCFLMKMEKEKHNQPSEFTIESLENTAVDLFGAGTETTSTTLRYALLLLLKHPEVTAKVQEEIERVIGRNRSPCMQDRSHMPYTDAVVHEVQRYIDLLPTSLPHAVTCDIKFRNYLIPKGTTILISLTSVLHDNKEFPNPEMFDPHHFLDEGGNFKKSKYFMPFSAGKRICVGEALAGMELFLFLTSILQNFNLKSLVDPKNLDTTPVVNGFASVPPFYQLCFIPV
T1 sequence (P10636 2-441 isoform P10636-8 limits assumed): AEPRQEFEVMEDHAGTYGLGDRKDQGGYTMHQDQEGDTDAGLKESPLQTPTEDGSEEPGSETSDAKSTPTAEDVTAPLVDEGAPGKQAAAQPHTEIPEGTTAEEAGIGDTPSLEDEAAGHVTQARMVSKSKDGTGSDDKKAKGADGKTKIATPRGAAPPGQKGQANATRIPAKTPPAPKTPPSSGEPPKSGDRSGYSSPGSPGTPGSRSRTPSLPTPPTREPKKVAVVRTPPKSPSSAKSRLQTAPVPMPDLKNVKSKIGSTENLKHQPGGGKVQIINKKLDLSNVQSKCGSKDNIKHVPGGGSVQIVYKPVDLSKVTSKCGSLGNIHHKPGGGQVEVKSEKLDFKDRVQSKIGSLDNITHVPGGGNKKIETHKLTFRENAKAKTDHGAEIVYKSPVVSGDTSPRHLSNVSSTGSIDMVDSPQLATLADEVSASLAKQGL
T6 sequence (P08684 whole entry): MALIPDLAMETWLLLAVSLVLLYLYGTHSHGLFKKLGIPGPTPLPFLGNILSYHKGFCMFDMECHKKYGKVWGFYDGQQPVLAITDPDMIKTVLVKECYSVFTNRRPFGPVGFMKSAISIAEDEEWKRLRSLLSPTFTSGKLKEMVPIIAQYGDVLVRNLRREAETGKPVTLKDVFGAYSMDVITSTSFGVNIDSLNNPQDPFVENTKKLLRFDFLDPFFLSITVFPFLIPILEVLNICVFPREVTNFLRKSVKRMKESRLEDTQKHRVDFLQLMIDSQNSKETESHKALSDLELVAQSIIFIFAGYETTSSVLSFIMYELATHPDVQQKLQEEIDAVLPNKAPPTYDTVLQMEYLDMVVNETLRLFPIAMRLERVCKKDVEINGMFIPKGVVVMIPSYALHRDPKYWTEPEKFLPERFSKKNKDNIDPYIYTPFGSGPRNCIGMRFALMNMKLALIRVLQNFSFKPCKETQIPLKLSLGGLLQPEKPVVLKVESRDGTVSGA
T5 sequence (P10635 whole entry): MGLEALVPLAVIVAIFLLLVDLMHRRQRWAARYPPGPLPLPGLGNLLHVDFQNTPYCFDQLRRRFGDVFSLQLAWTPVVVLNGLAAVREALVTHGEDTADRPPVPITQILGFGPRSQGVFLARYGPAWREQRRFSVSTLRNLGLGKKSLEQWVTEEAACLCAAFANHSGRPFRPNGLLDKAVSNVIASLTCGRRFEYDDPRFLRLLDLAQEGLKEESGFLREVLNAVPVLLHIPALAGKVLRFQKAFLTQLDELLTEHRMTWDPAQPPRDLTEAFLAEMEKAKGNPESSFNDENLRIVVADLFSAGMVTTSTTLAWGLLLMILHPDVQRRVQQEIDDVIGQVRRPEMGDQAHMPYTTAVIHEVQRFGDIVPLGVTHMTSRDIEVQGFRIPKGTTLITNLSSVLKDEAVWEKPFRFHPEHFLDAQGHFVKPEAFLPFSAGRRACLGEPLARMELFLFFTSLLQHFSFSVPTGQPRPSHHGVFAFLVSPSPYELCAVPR
T4 sequence (P33261 whole entry): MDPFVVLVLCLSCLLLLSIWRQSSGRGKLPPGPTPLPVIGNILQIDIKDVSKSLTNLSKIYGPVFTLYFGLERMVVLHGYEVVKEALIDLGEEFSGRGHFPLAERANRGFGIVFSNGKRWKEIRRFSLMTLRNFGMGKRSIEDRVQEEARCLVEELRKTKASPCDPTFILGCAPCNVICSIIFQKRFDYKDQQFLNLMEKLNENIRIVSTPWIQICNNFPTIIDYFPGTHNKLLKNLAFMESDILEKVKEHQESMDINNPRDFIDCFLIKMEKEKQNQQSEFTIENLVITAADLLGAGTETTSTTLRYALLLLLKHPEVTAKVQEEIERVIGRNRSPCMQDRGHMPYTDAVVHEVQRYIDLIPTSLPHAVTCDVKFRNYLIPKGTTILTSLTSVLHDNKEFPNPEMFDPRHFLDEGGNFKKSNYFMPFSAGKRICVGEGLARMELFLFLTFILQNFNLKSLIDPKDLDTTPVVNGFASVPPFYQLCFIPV

Compound	IC50 (tau protein)	Tau BiFC in cells Response (%, @10 μM) (tau protein)	Cell viability (%, @10 μM) (Tau-BiFC cells)	CYP1A2 activity (%) with respect to control group not treated with any compound (CYP1A2)	CYP2C9 activity (%) with respect to control group not treated with any compound (CYP2C9)	CYP2C19 activity (%) with respect to control group not treated with any compound (CYP2C19)	CYP2D6 activity (%) with respect to control group not treated with any compound (CYP2D6)	CYP3A4 activity (%) with respect to control group not treated with any compound (CYP3A4)	Human (%) amount remaining after the reaction [1]	Dog (%) amount remaining after the reaction [2]	Rat (%) amount remaining after the reaction [3]	Mouse (%) amount remaining after the reaction [4]
CCN1N=C(c2ccc(NN=C(C#N)C#N)cc2)C(C)CC1=O (stereo not drawn) [Example 3, (4-(1-ethyl-4-methyl-6-oxo-1,4,5,6-tetrahydropyridazin-3-yl)phenyl)carbonohydrazonoyl dicyanide]	90 nM	0%	68.2%	>100%	99.9%	>100%	93.6%	>100%	90.3%	91.9%	89.6%	89.6%
CC1CC(=O)N(CC(F)(F)F)N=C1c1ccc(NN=C(C#N)C#N)cc1 (stereo not drawn) [Example 4, (4-(4-methyl-6-oxo-1-(2,2,2-trifluoroethyl)-1,4,5,6-tetrahydropyridazin-3-yl)phenyl)carbonohydrazonoyl dicyanide]	450 nM	0%	98.7%	74.8%	55.6%	45.5%	62.1%	74.2%	98.2%	95.6%	96.8%	89%
COCCN1N=C(c2ccc(NN=C(C#N)C#N)cc2)C(C)CC1=O (stereo not drawn) [Example 5, (4-(1-(2-methoxyethyl)-4-methyl-6-oxo-1,4,5,6-tetrahydropyridazin-3-yl)phenyl)carbonohydrazonoyl dicyanide]	90 nM	15.6%	95.7%	70%	71.5%	63.4%	70.4%	74.2%	30.9%	>100%	90.9%	94.9%
CC1CC(=O)N(C2CC2)N=C1c1ccc(NN=C(C#N)C#N)cc1 (stereo not drawn) [Example 6, (4-(1-cyclopropyl-4-methyl-6-oxo-1,4,5,6-tetrahydropyridazin-3-yl)phenyl)carbonohydrazonoyl dicyanide]	70 nM	0%	62.9%	78.6%	74.2%	74.2%	72.6%	79.5%	85%	99.5%	95.8%	92.7%
